According to patent publication US11384063B2, “Modulators of estrogen receptor proteolysis and associated methods of use” (Arvinas Operations, Inc., priority 2017, dated 2022):
Where two headings read alike, the source gives them in different places.

What was measured:
ERα [1] = biological target: T1, ERα (Homo sapiens, UniProt P03372); test: Estrogen receptor-alpha (ERα) degradation assay in MCF7 cells using In-Cell Western assay; format: cell-based; set-up: assessed for their activity in degrading ERα in MCF-7 cells via western blot; endogenous in cells; host or cells: MCF7 cells; details: ER-alpha degradation in MCF7 cells, 5 days of incubation
T1 sequence (P03372 1-595): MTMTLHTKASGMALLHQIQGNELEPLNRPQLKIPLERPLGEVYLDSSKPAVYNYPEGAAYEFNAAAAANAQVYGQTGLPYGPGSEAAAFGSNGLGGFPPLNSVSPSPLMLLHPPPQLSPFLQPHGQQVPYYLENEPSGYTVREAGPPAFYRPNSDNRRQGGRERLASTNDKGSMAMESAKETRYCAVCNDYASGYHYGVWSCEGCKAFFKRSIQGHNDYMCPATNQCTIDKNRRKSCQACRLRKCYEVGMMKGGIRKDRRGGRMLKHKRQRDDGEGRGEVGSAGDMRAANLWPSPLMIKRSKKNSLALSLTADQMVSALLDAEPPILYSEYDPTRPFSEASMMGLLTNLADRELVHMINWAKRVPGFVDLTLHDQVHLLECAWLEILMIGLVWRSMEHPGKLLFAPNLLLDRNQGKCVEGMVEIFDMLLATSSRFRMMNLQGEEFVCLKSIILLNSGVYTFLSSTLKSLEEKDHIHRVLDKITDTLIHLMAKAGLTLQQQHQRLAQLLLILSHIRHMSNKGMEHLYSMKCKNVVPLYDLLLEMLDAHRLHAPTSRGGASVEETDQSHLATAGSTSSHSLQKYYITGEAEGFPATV
Description: Estrogen Receptor-Alpha (ERα) Degradation Assay Using in-Cell Western™ Assay for Table 5.
Degradation of ERα by claimed compounds were determined in MCF7 cells using an In-Cell Western™ assay. Briefly, MCF7 cells were plated in 96-well plates (2000 cells per well in 100 μl media) and incubated at 37° C. under an atmosphere of 5% CO2 in a humidified incubator overnight. One-hundred (100) μI of media containing test compound (at 2x concentration) was added to the appropriate wells to provide 11 serially decreasing concentrations (top final concentration, 1 μM then 3-fold less for the next 10 concentrations); a vehicle control (DMSO) was also added for each compound. For each experiment, all compounds were assayed on duplicate plates. Cells were then incubated for 3 or 5 days in the above-mentioned environment. The assay was terminated by removal of media, a single wash with ice-cold PBS and the addition of 50 μl paraformaldehyde (PFA: 4% in PBS). After 15 minutes in PFA at room temperature, the cells were permeabilized in Tris-phosphate-buffered saline with Tween (0.1%) (TBST) supplemented with Triton X-100 (0.5%) for 15 minutes. Cells were then blocked in BSA (TBST with BSA, 3%) for one hour. Primary antibodies for the detection of ERa (rabbit monoclonal, 1:1000, Cell Signaling Technology Catalog #8644) and tubulin (mouse monoclonal, 1:5000, Sigma Catalog #T6074) in TBST with BSA (3%) were added. The cells were incubated overnight at 4° C. The cells were then washed thrice with TBST at room temperature and then incubated with anti-rabbit and anti-mouse fluorescently-labelled secondary antibodies (IRDye®; LI-COR; Lincoln, Nebr.) in LI-COR blocking buffer (Catalog #927-50000) for one hour at room temperature. Following 3 washes with TBST, the buffer was removed and the plates were read on an Odyssey® infrared imaging system (LI-COR®, Lincoln, Nebr.) at 700 nm and 800 nm. Using commercial software (ImageStudio™; LI-COR, Lincoln, Nebr.), the staining intensity for ERa and tubulin in each well was quantified and exported for analysis. For each data point, ERa intensity was normalized to tubulin intensity and for each compound all normalized intensity values were normalized to the vehicle control. DC50 and Dmax values were determined following a 4-parameter IC50 curve fit using ACAS dose response module (McNeil & Co Inc.).

ERα [2] = biological target: T1, ERα; test: ERE luciferase reporter gene assay in T47D-KBluc cells (target engagement); format: cell-based; set-up: T47D human breast cancer cells stably transfected with estrogen responsive element/promoter/luciferase reporter gene; host or cells: T47D-KBluc cells; details: 10% FBS, 24 hours, read-out: ER-α Luciferase IC50
Summary of the method: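 PROTACs were tested at 12 concentrations from 300 nM down to 2 pM in 3-fold steps for 24 h on T47D-KBluc cells with a stable ERE-driven luciferase. Medium was RPMI with 10% FBS, measured at 10 pM estrogen. IC50 came from luminescence after lysis, in duplicate.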

[3] = Table 3 cereblon centric PROTACs
[4] = Table 1 cereblon centric PROTACs

Structure (SMILES)	DC50 (ERα [1]) [µM]	Dmax (ERα [1]) [%]	IC50 (ERα [2]; [3]) [µM]	IC50 (ERα [2]; [4]) [µM]
O=C1CCC(N2Cc3cc(N4CCN(CCCCc5ccc(Oc6c(-c7ccc(Br)cc7)sc7cc(O)ccc67)cc5)CC4)ccc3C2=O)C(=O)N1 (centres unmarked) [Compound 215, 3-[5-[4-[4-[4-[2-(4-bromophenyl)-6-hydroxybenzothiophen-3-yl]oxyphenyl]butyl]piperazin-1-yl]-1-oxo-isoindolin-2-yl]piperidine-2,6-dione]	0.001 to 0.01	50 to 75	0.0053	
O=C1CCC(N2Cc3cc(NCCCN4CCN(CCOc5ccc(Oc6c(-c7ccc(F)cc7)sc7cc(O)ccc67)cc5)CC4)ccc3C2=O)C(=O)N1 (centres unmarked) [Compound 174, 3-[5-[3-[4-[2-[4-[2-(4-fluorophenyl)-6-hydroxy-benzothiophen-3-yl]oxyphenoxy]ethyl]piperazin-1-yl]propylamino]-1-oxo-isoindolin-2-yl]piperidine-2,6-dione]	< 0.001	> 75	0.00054	
O=C1CCC(N2Cc3cc(N4CCN(CC5CCN(c6ccc(Oc7c(-c8ccc(Br)cc8)sc8cc(O)ccc78)cn6)CC5)CC4)ccc3C2=O)C(=O)N1 (centres unmarked) [Compound 236, 3-[5-[4-[[1-[5-[2-(4-bromophenyl)-6-hydroxy-benzothiophen-3-yl]oxy-2-pyridyl]-4-piperidyl]methyl]piperazin-1-yl]-1-oxo-isoindolin--2-yl]piperidine-2,6-dione]	0.001 to 0.01	> 75	0.0049	
O=C1CCC(N2Cc3nc(N4CCN(CC5CCN(c6ccc(Oc7c(-c8ccc(F)cc8)sc8cc(O)ccc78)cc6)CC5)CC4)ccc3C2=O)C(=O)N1 (centres unmarked) [Compound 230, 3-[2-[4-[[1-[4-[2-(4-fluorophenyl)-6-hydroxy-benzothiophen-3-yl]oxyphenyl]-4-pipendyl]methyl]piperazin-1-yl]-5-oxo-7H-pyrrolo[3,4-b]pyridin-6-yl]piperidine-2,6-dione]	0.001 to 0.01	> 75	0.0011	
O=C1CCC(N2C(=O)c3ccc(N4CCN([C@H]5C[C@H](Oc6ccc(Oc7c(-c8ccc(Br)cc8)sc8cc(O)ccc78)cc6)C5)CC4)cc3C2=O)C(=O)N1 (stereo partly drawn) [Compound 223, trans-5-[4-[3-[4-[2-(4-bromophenyl)-6-hydroxy-benzothiophen-3-yl]oxyphenoxy]cyclobutyl]piperazin-1-yl]-2-(2,6-dioxo-3-piperidyl)isoindoline-1,3-dione]	0.01 to 0.1	> 75	0.0411	
O=C1CCC(N2C(=O)c3ccc(N4CCN(CC5CCN(CCOc6ccc(Oc7c(-c8ccc(Br)cc8)sc8cc(O)ccc78)cc6)CC5)CC4)cc3C2=O)C(=O)N1 (centres unmarked) [Compound 184, 5-[4-[1-[2-[4-[2-(4-bromophenyl)-6-hydroxy-benzothiophen-3-yl]oxyphenoxy]ethyl]-4-piperidylmethyl]piperazin-1-yl]-2-(2,6-dioxo-3-piperidyl)isoindoline-1,3-dione]	0.01 to 0.1	> 75	0.0133	
O=C1CCC(N2Cc3cc(NCCCOCCCOCCOc4ccc(Oc5c(-c6ccc(Br)cc6)sc6cc(O)ccc56)cc4)ccc3C2=O)C(=O)N1 (centres unmarked) [Compound 89, 3-[5-[3-[3-[2-[4-[2-(4bromophenyl)-6-hydroxy-benzothiophen-3-yl]oxyphenoxy]ethoxy]propoxy]propylamino]-1-oxo-isoindolin-2-yl]piperidine-2,6-dione]	0.001 to 0.01	50 to 75		0.0048
O=C1CCC(N2C(=O)c3ccc(N4CCN(CCCCCOc5ccc(Oc6c(-c7ccc(Br)cc7)sc7cc(O)ccc67)cc5)CC4)cc3C2=O)C(=O)N1 (centres unmarked) [Compound 61, 5-{4-[5-(4-{[2-(4-bromophenyl)-6-hydroxy-1-benzothiophen-3-yl]oxy}phenoxy)pentyl]piperazin-1-yl}-2-(2,6-dioxopiperidin-3-yl)-2,3-dihydro-1H-isoindole-1,3-dione]	0.01 to 0.1	50 to 75		0.0183
O=C1CCC(N2Cc3cc(N4CCN(CC5CCN(c6ccc(Oc7c(-c8ccc(F)cc8)sc8cc(O)ccc78)cc6)CC5)CC4)ccc3C2=O)C(=O)N1 (centres unmarked) [Compound 226, 3-[5-[4-[[1-[4-[2-(4-fluorophenyl)-6-hydroxy-benzothiophen-3-yl]oxyphenyl]-4-piperidyl]methyl]piperazin-1-yl]-1-oxo-isoindolin-2-yl]piperidine-2,6-dione]	0.001 to 0.01	> 75	0.0012	
O=C1CCC(N2Cc3c(ccc(N4CCN(C5CCN(CCOc6ccc(Oc7c(-c8ccc(C(F)(F)F)cc8)sc8cc(O)ccc78)cc6)CC5)CC4)c3F)C2=O)C(=O)N1 (centres unmarked) [Compound 193, 3-[4-fluoro-5-[4-[1-[2-[4-[6-hydroxy-2-[4-(trifluoromethyl)phenyl]benzothiophen-3-yl]oxyphenoxy]ethyl]-4-piperidyl]piperazin-1-yl]-1-oxo-isoindolin-2-yl]piperidine-2,6-dione]	0.001 to 0.01	> 75	0.0098	
O=C1CCC(N2C(=O)c3ccc(N4CC(N5CCC(Oc6ccc(Oc7c(-c8ccc(Br)cc8)sc8cc(O)ccc78)cc6)CC5)C4)cc3C2=O)C(=O)N1 (centres unmarked) [Compound 213, 5-[3-[4-[4-[2-(4-bromophenyl)-6-hydroxybenzothiophen-3-yl]oxyphenoxy]-1-pipendyl]azetidin-1-yl]2-(2,6-dioxo-3-piperidyl)isoindoline-1,3-dione]		< 50	0.0112	
O=C1CCC(N2Cc3cc(N4CCN(C5CCN(CCOc6ccc(Oc7c(-c8ccc(C(F)(F)F)cc8)sc8cc(O)ccc78)cc6)CC5)CC4)ccc3C2=O)C(=O)N1 (centres unmarked) [Compound 192, 3-[5-[4-[1-[2-[4-[6-hydroxy-2-[4-(trifluoromethyl)phenyl]benzothiophen-3-yl]oxyphenoxy]ethyl]-4-piperidyl]piperazin-1-yl]-1-oxo-isoindolin-2-yl]piperidine-2,6-dione]	0.01 to 0.1	> 75	0.0029	
O=C1CCC(N2Cc3nc(N4CCN(CC5CCN(c6ccc(Oc7c(-c8ccc(Br)cc8)sc8cc(O)ccc78)cc6F)CC5)CC4)ccc3C2=O)C(=O)N1 (centres unmarked) [Compound 239]	0.01 to 0.1	> 75	0.0135	
O=C1CCC(N2Cc3cc(NCCCOCCOCCOc4ccc(Oc5c(-c6ccc(Br)cc6)sc6cc(O)ccc56)cc4)ccc3C2=O)C(=O)N1 (centres unmarked) [Compound 95, 3-[5-[3-[2-[2-[4[2-(4-bromophenyl)-6-hydroxy-benzothiophen-3-yl]oxyphenoxy]ethoxy]ethoxy]propylamino]-1-oxo-isoindolin-2-yl]piperidine-2,6-dione]		< 50		
O=C1CCC(N2Cc3cc(NCCCOCCCOCCCOc4ccc(Oc5c(-c6ccc(Br)cc6)sc6cc(O)ccc56)cc4)ccc3C2=O)C(=O)N1 (centres unmarked) [Compound 94, 3-[5-[3-[3-[3-[4-[2-(4-bromophenyl)-6-hydroxy-benzothiophen-3-yl]oxyphenoxy]propoxy]propoxy]propylamino]-1-oxo-isoindolin-2-yl]piperidine-2,6-dione]	0.001 to 0.01	50 to 75		
